Measurements taken from US9309242B2, “Substituted pyrido[2,3-b]pyrazines as FGFR kinase inhibitors” (priority 2011, dated 2016).
pIC50: −log10 of the molar value. Read-outs that look alike come from different tables or passages of the source.

Tests used:
FGFR1 (h) = FGFR1 (h) (Homo sapiens, UniProt P11362); assay: FGFR1 (enzymatic assay), TR-FRET; type: biochemical; details: average values if tested multiple times, read-out: FGFR 1 pIC50 (converted)
FGFR2 (h) = FGFR2 (h) (Homo sapiens, UniProt P21802); assay: FGFR2 (enzymatic assay), TR-FRET; type: biochemical; details: enzymatic assay; average values if tested multiple times; read-out: FGFR 2 pIC50 (converted)
In short: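 Phosphorylation of 500 nM Btn-Flt3 by human FGFR2 (150 ng/ml) is measured at 0.4 μM ATP. The buffer is 50 mM HEPES pH 7.5 containing 6 mM MnCl2, 1 mM DTT, 0.1 mM Na3VO4 and 0.01% Triton-X-100, and compound is tested at 1% DMSO final.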

FGFR3 (h) = FGFR3 (h) (Homo sapiens, UniProt P22607); assay: FGFR3 (enzymatic assay), TR-FRET; type: biochemical; details: average values if tested multiple times, read-out: FGFR 3 pIC50 (converted)
Source text: Time-Resolved Fluorescence Resonance Energy Transfer (TR-FRET) signal (ex340 nm.

FGFR4 (h) = FGFR4 (h) (Homo sapiens, UniProt P22455); assay: FGFR4 (enzymatic assay), TR-FRET; type: biochemical; details: FGFR 4 pIC50, enzymatic assay; average values if tested multiple times
[1] = target: T1, Ba/F3-FGFR1-transfected cells (Homo sapiens, UniProt P11362); assay: Ba/F3-FGFR1 (minus IL3) cellular proliferation assay, Alamar Blue; type: cell-based
T1 construct: BAF3-FGFR1 (MIN IL3) pIC50; other: minus IL3
In short: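 Viability was measured by resazurin reduction (fluorescence, 540 nm excitation/590 nm emission) after a 4 h Alamar Blue incubation. This followed 24 h of compound treatment at 37 °C, 5% CO2, of 20000 FGFR1-transfected Ba/F3 cells per well in 10% FBS RPMI-1640.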

[2] = test system: Ba/F3-FGFR1-transfected cells; assay: Ba/F3-FGFR1 (plus IL3) cellular proliferation assay, counterscreen with 10 ng/ml murine IL3; type: cell-based; details: read-out: BAF3-FGFR1 (PLUS IL3) pIC50 (converted)
In short: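 Proliferation read-out: resazurin-based Alamar Blue fluorescence (540/590 nm) after 4 h, following 24 h compound treatment of 20000 Ba/F3-FGFR1 cells per well in 10% FBS RPMI at 37° C. IL3 counterscreen used the same protocol plus 10 ng/ml murine IL3.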

[3] = target: T2, Ba/F3-FGFR3-transfected cells (Homo sapiens, UniProt P22607); assay: Ba/F3-FGFR3 (minus IL3) cellular proliferation assay, Alamar Blue; type: cell-based
T2 construct: BAF3-FGFR3 (MIN IL3) pIC50; other: minus IL3
In short: (§1)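 Viability readout was resazurin reduction (ex 540/em 590 nm) after 4 h, following 24 h compound treatment at 37 °C of FGFR3-transfected Ba/F3 cells (20000/well, RPMI-1640/10% FBS). IL3-dependent counterscreen used identical conditions plus 10 ng/ml murine IL3.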

[4] = test system: Ba/F3-FGFR3-transfected cells; assay: Ba/F3-FGFR3 (plus IL3) cellular proliferation assay, counterscreen with 10 ng/ml murine IL3; type: cell-based; details: read-out: BAF3-FGFR3 (PLUS IL3) pIC50 (converted)
In short: as §1

[5] = test system: Ba/F3-KDR-transfected cells; assay: Ba/F3-KDR (plus IL3) cellular proliferation assay, counterscreen with 10 ng/ml murine IL3; type: cell-based; details: read-out: BAF3-KDR (PLUS IL3) pIC50 (converted)
In short: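 Cells grown with test compound at 37° C and 5% CO2 for 24 hours were given a resazurin/ferricyanide/ferrocyanide reagent for 4 hours before fluorescence (540/590 nm) was recorded.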

[6] = target: Ba/F3-FGFR4-transfected cells (Homo sapiens, UniProt P22455); assay: Ba/F3-FGFR4 cellular proliferation assay, Alamar Blue; type: cell-based
In short: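 Here, cells seeded at 20000 per well were treated 24 hours with compound, then given a 4-hour Alamar Blue incubation at 37° C before RFU measurement at ex. 540 nm and em. 590 nm.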

[7] = plus IL3 (10 ng/ml murine IL3, counterscreen)

Sequence of FGFR3 (h) (P22607 23-806): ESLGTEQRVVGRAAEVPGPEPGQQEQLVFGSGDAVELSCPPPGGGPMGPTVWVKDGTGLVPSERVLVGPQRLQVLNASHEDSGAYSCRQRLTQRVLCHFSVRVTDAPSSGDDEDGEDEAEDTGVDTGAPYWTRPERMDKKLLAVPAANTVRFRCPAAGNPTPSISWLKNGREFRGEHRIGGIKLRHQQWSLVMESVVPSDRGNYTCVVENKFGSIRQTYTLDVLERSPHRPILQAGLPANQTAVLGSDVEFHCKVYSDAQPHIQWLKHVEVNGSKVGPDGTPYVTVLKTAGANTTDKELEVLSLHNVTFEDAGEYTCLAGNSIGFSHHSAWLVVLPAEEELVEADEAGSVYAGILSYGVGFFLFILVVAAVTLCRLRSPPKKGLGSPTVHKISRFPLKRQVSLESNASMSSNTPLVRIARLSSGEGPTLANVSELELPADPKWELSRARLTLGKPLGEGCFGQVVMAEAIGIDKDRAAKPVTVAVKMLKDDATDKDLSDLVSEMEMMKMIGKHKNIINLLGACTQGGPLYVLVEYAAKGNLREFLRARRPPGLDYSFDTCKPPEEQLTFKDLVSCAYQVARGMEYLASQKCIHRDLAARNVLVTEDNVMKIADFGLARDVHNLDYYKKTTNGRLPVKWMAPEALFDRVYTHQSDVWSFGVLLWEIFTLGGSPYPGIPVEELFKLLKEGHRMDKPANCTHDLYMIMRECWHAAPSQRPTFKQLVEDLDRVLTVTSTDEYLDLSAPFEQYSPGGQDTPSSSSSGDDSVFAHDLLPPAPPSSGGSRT
T2 sequence (P22607 whole entry, change not shown): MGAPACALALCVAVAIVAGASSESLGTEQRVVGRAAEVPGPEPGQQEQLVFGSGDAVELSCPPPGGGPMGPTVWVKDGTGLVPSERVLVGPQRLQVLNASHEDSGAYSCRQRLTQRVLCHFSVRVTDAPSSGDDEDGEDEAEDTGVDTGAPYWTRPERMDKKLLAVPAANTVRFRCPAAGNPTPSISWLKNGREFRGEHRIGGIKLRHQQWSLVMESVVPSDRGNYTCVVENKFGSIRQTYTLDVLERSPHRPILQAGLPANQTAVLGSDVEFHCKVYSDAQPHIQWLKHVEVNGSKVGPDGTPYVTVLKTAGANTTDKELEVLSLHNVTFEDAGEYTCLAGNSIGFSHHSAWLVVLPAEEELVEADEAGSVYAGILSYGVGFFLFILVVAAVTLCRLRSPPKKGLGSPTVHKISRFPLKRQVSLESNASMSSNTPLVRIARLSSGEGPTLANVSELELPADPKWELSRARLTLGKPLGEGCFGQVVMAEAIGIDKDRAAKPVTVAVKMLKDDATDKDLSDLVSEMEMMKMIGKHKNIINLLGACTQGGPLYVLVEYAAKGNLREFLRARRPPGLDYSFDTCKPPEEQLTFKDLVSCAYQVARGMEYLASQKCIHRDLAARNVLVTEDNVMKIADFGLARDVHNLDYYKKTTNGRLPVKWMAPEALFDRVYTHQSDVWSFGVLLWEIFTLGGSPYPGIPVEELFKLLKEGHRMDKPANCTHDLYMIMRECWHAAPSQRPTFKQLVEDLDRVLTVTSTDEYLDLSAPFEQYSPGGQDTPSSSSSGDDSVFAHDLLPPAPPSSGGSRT
Sequence of FGFR4 (h) (P22455 22-802): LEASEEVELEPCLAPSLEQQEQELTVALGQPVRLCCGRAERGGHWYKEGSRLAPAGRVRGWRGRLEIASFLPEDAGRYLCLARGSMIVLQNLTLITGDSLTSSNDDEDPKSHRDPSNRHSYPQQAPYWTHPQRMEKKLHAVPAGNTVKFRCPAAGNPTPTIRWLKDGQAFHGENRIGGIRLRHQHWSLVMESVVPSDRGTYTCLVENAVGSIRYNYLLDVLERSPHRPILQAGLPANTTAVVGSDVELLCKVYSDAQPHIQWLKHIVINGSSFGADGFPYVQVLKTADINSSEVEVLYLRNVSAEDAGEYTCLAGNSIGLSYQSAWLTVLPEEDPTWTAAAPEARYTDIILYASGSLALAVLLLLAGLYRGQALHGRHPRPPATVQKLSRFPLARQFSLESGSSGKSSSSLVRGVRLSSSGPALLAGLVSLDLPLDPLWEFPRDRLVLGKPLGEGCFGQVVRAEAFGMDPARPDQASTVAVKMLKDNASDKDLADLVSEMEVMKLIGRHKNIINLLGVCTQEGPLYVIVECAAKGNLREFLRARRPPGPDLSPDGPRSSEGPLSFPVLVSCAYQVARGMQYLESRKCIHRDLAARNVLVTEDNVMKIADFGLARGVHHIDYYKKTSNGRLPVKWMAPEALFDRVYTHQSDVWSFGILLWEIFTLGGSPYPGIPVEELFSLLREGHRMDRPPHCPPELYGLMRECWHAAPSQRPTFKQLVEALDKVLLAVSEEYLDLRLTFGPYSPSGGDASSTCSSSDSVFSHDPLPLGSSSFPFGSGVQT
T1 sequence (P11362 whole entry, change not shown): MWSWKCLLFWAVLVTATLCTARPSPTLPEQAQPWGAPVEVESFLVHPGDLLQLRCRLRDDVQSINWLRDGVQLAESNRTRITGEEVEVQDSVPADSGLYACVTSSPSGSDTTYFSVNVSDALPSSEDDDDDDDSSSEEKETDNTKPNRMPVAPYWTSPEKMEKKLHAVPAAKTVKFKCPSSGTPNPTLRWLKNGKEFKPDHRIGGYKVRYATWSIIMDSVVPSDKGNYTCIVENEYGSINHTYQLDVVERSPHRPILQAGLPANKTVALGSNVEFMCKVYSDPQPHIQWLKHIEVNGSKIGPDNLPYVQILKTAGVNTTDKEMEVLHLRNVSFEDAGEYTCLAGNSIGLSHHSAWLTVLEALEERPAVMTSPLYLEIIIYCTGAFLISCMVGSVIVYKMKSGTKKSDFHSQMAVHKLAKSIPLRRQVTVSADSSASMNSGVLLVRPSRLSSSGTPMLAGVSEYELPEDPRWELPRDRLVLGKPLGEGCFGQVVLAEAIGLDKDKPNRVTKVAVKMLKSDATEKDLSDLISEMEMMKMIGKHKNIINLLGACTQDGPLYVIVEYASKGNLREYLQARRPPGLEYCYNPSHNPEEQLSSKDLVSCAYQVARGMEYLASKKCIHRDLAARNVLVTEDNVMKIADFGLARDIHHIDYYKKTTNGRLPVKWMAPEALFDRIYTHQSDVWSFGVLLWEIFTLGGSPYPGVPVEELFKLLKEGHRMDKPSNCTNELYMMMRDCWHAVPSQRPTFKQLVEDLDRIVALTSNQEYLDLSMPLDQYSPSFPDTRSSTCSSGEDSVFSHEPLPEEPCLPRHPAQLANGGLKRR
Sequence of FGFR1 (h) (P11362 22-822): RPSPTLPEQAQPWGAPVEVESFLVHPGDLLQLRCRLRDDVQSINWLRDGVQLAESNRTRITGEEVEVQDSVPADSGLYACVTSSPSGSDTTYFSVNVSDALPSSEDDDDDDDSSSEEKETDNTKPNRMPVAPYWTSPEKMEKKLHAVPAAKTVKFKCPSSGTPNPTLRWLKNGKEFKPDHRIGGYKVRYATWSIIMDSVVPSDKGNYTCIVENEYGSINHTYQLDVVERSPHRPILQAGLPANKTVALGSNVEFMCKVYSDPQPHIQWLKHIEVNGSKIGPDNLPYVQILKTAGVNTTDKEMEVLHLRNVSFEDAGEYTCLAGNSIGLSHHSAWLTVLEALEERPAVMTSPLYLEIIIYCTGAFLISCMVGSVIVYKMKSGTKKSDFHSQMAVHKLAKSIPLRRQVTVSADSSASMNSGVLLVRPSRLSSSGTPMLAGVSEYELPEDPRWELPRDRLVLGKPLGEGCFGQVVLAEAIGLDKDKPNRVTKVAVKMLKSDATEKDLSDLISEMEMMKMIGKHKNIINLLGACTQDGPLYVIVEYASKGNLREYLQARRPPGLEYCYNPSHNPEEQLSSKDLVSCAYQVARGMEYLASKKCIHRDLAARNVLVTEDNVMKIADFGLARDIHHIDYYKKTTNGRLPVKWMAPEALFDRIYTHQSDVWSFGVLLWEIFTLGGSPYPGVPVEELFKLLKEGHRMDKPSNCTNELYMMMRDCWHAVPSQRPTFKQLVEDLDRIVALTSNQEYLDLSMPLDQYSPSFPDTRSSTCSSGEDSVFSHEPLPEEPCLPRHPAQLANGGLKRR
Sequence of FGFR2 (h) (P21802 22-821): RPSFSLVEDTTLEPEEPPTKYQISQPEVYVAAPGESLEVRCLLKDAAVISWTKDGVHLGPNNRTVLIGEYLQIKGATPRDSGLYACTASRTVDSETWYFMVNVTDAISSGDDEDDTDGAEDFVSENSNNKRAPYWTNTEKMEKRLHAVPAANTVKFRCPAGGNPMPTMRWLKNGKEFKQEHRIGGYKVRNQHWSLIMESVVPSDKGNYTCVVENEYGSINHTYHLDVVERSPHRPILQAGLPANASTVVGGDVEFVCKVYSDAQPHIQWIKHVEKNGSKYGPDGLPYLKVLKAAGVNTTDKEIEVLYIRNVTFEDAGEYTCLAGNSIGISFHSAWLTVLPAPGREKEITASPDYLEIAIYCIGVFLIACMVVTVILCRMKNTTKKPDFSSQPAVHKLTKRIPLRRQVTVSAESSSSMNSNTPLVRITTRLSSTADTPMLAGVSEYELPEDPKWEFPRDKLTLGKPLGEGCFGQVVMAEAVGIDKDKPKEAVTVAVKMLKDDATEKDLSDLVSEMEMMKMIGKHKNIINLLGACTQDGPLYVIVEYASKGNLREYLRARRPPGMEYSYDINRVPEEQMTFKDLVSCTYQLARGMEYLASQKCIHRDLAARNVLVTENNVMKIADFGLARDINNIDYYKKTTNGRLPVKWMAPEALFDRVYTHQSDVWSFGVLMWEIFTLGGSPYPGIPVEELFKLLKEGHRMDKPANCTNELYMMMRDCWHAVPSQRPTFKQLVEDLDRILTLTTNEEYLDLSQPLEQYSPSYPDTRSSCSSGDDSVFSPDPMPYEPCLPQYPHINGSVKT

| SMILES | IC50 (FGFR1 (h)) | IC50 (FGFR2 (h)) | IC50 (FGFR3 (h)) | pIC50 (FGFR4 (h)) | BAF3-FGFR1 (MIN IL3) pIC50 [1] | IC50 [2, 7] | BAF3-FGFR3 (MIN IL3) pIC50 [3] | IC50 [4, 7] | IC50 [5, 7] | BAF3-FGFR4 pIC50 [6] | IC50 [2] | IC50 [4] | IC50 [5] |
| --- | --- | --- | --- | --- | --- | --- | --- | --- | --- | --- | --- | --- | --- |
| COc1cc(OC)c(F)c(N(CCCN2CCCC2=O)c2ccc3ncc(-c4cnn(C)c4)nc3n2)c1F [Compound 56] | 0.891 nM | 2.82 nM | 2.75 nM | 8.64 | 7.53 | > 10000 nM | 7.87 | > 10000 nM | > 10000 nM | 7.41 |  |  |  |
| COc1cc(OC)c(F)c(N(CC(O)COC(C)C)c2ccc3ncc(-c4cnn(C)c4)nc3n2)c1F (stereo not drawn) [Compound 63] | 3.72 nM | 6.17 nM | 6.31 nM | 8.22 | 7.90 | > 10000 nM | 7.97 | > 10000 nM | > 10000 nM | 7.49 |  |  |  |
| COc1cc(OC)c(F)c(/N=c2\ccc3ncc(-c4cnn(C)c4)nc3n2CC(O)COC(C)C)c1F (stereo not drawn) [Compound 64] | 0.776 nM | 1.62 nM | 0.832 nM | 9.00 | 8.40 | > 10000 nM | 8.12 | > 10000 nM | > 10000 nM | 7.52 |  |  |  |
| COc1ccc(Cl)c(N(Cc2ncc[nH]2)c2ccc3ncc(-c4cnn(C)c4)nc3n2)c1Cl [Compound 65] | 38.9 nM | ~11.2 nM | 34.7 nM | ~6.45 | 5.97 | > 10000 nM | 6.04 | > 10000 nM | > 10000 nM | 5.21 |  |  |  |
| COc1cc(OC)c(F)c(N(CCN)c2ccc3ncc(-c4cnn(C)c4)nc3n2)c1F [Compound 67] | 0.813 nM | 1.78 nM | 1.2 nM | 8.56 | 8.20 | > 10000 nM | 7.83 | > 10000 nM | > 10000 nM | 7.37 |  |  |  |
| COc1cc(OC)c(F)c(/N=c2\ccc3ncc(-c4cnn(C)c4)nc3n2CCN)c1F [Compound 68] | 0.575 nM | 1.58 nM | 1.62 nM | 8.70 | 7.86 | > 10000 nM | 7.70 | > 10000 nM | > 10000 nM | 7.14 |  |  |  |
| CNCCN(c1ccc2ncc(-c3cnn(C)c3)nc2n1)c1c(F)ccc(OC)c1Cl [Compound 69] | 3.02 nM | 4.27 nM | 6.46 nM | 7.41 | 7.06 | > 10000 nM | 6.76 | > 10000 nM | > 10000 nM | 6.11 |  |  |  |
| COc1cc(OC)cc(N(Cc2nc[nH]n2)c2ccc3ncc(-c4cnn(C)c4)nc3n2)c1 [Compound 71] | 1.07 nM | 1.55 nM | 0.776 nM | 8.79 | 7.49 |  | 7.71 |  |  | 7.14 | > 10000 nM | > 10000 nM | > 10000 nM |
| COc1ccc(F)c(N(Cc2ncc[nH]2)c2ccc3ncc(-c4cnn(C)c4)nc3n2)c1Cl [Compound 73] | 2.4 nM | 2.82 nM | 2.82 nM | 7.82 | 7.59 | > 10000 nM | 7.46 | > 10000 nM | > 10000 nM | 6.50 |  |  |  |
| CNCCN(c1ccc2ncc(-c3cnn(C)c3)nc2n1)c1c(Cl)c(OC)cc(OC)c1Cl [Compound 81] | 5.89 nM | 9.12 nM | 8.13 nM | 7.15 | 7.04 | > 10000 nM | 6.67 | > 10000 nM | > 10000 nM | 5.76 |  |  |  |
| CNCCN(c1ccc2ncc(-c3cnn(C)c3)nc2n1)c1c(Cl)ccc(OC)c1Cl [Compound 83] | 75.9 nM | 49 nM | 105 nM | 6.03 | 5.36 | > 10000 nM | ~5.66 | > 10000 nM | > 10000 nM | <5 |  |  |  |
| CNCCn1/c(=N/c2c(Cl)ccc(OC)c2Cl)ccc2ncc(-c3cnn(C)c3)nc21 [Compound 84] | 224 nM | 126 nM | 363 nM | 5.45 | 5.15 | > 10000 nM | ~5.11 | > 10000 nM | > 10000 nM | <5 |  |  |  |
| COc1cc(OC)c(F)c(N(Cc2nc[nH]n2)c2ccc3ncc(-c4cnn(C)c4)nc3n2)c1F [Compound 85] | 1.02 nM | 2.04 nM | 2.14 nM | 8.65 | 8.28 | > 10000 nM | 8.14 | > 10000 nM | > 10000 nM | 7.66 |  |  |  |
| COc1cc(OC)c(F)c(N(Cc2nc[nH]n2)c2ccc3ncc(-c4cnn(C)c4)nc3n2)c1 [Compound 86] | 1.26 nM | 1.41 nM | 1 nM | 8.95 | 7.74 | > 10000 nM | ~7.90 | > 10000 nM | > 10000 nM | 7.33 |  |  |  |
| COc1ccc(Cl)c(/N=c2\ccc3ncc(-c4cnn(C)c4)nc3n2CC2CCC(=O)N2)c1Cl (stereo not drawn) [Compound 92] | 61.7 nM | 30.2 nM | 46.8 nM | 6.25 | <5 | > 10000 nM | ~5.61 | > 10000 nM | > 10000 nM | <5 |  |  |  |
| COc1cc(O)cc(N(Cc2ncc[nH]2)c2ccc3ncc(-c4cnn(C)c4)nc3n2)c1F [Compound 95] | 0.417 nM | 0.955 nM | 0.447 nM | 9.27 | 8.83 | 7410 nM | ~8.46 | > 9330 nM | > 10000 nM | 8.03 |  |  |  |
| COc1cc(OC)c(Cl)c(N(C[C@H]2CCC(=O)N2)c2ccc3ncc(-c4cnn(C)c4)nc3n2)c1Cl [Compound 97] | 5.25 nM | 6.61 nM | 4.68 nM | 7.58 | 6.80 | > 10000 nM | ~6.83 | > 10000 nM | > 10000 nM | 5.95 |  |  |  |
| COc1cc(OC)c(Cl)c(N(Cc2ncc[nH]2)c2ccc3ncc(-c4cnn(C)c4)nc3n2)c1Cl [Compound 98] | ~3.89 nM | 4.37 nM | 2.69 nM | 8.11 | 7.72 | > 10000 nM | 7.65 | > 10000 nM | > 10000 nM | 6.56 |  |  |  |
